Patent US20030130177A1, “Use of amylin agonists to modulate triglycerides” (priority 2002, published 2003)

Key:
[1] = tested on: subjects with type 1 diabetes; assay: Single-dose crossover study of pramlintide injection timing relative to a standardized breakfast, type 1 diabetes (Example 2); format: in vivo, human; conditions: pramlintide 60 μg SC, -15 to +30 min relative to meal
From the text: (§1) In this example, a randomized, single-blind, placebo-controlled, five-way crossover study is designed to examine the effect of the timing of pramlintide injection relative to meal ingestion on postprandial plasma glucose profiles and triglycerides in subjects with type 1 diabetes and subjects with type 2 diabetes using insulin. Three study groups are defined by diabetes type and mealtime insulin used in their treatment regimen. On 5 study days, subjects receive a single dose of one of five treatments (A, B, C, D, or E) in random order:
(§2) Each treatment (pramlintide or placebo) is administered subcutaneously (SC) within specified times relative to a standardized breakfast after an overnight fast. Subjects are randomly assigned to one of four treatment sequences according to a randomization schedule generated for each study group.
(§3) Subjects with type 1 diabetes received pramlintide 60 μg or placebo (equivalent volume). Subjects with type 2 diabetes using insulin receive pramlintide 120 μg or placebo (equivalent volume). Subjects maintain their usual insulin regimen during the study; if necessary, insulin dose adjustments are made in consultation with study personnel to facilitate achievement of fasting fingerstick glucose values in the range of ≧80 mg/dL and ≦250 mg/dL while avoiding hypoglycemia. The timing of the short-acting insulin dose relative to the standardized breakfast is based on recommendations in the respective package inserts for the insulin (0 min for insulin lispro and −30 min for regular insulin).
The study population consists of three study groups, defined by diabetes type and type of mealtime insulin used in their treatment regimen. Study Group 1: Subjects with type 1 diabetes using insulin lispro. Study Group 2: Subjects with type 1 diabetes using regular insulin. Study Group 3: Subjects with type 2 diabetes using insulin lispro. Fifty-nine subjects (21 type 1 subjects using insulin lispro; 19 type 1 subjects using regular insulin; and 19 type 2 subjects using insulin lispro) are enrolled in this study.

[2] = tested on: patients with type-1 diabetes; assay: Standardized mixed meal test after 4 weeks pramlintide TID added to CSII (Example 1); format: in vivo, human
From the text: This Study Assesses the Effect of the Amylin Agonist Pramlintide on Post-Prandial Plasma Glucose and Triglyceride Excursions in Patients with Type-1 Diabetes Intensively Treated with Continuous Subcutaneous Insulin Infusion (CSII).
All 23 patients in this study are ≧16 years of age, have type-I diabetes for ≧1 year and have been intensively treated (CSII, basal/bolus regimen) for at least 6 months. Patients are using either lispro (n=21) or regular (n=2) insulin, have not changed their daily insulin dose by more than ±10% for 2 months prior to the study, and have been free from severe hypo- and hyperglycemic symptoms for at least 4 weeks prior to the study. Exclusion criteria include a clinically significant history or presence of heart disease, uncontrolled hypertension (blood pressure ≧160/90 mm Hg), gastrointestinal, hepatic, renal, or central nervous system disorders, acute illness, a history of drug or alcohol abuse, or treatment with drugs known to affect gastrointestinal motility or glucose metabolism.
The study consists of 3 time periods (baseline, 4 weeks on-therapy, 2 weeks off-therapy). At the end of each time period (weeks 0, 4, 6), patients are evaluated at the clinical research center (CRC). Each evaluation includes a standardized meal test.
The first evaluation (baseline) is conducted when patients are solely treated with their usual CSII regimen. After the baseline evaluation, patients are randomized to self-administer either placebo (n=6) or pramlintide (n=17) TID with major meals, in addition to their existing CSII therapy, for 4 weeks. The placebo group is included to provide data that could be used to determine adequate power analyses when planning future studies and not for the purpose of placebo comparisons. […]
On each of the 3 CRC visits, patients undergo a standardized mixed meal test the morning after an overnight fast. […] Blood samples are processed in accordance with standard clinical practice using a reference lab and commercially available products (e.g., quantitative enzymatic in vitro assay for Triglycerides GPO-PAP, Roche Diagnostics). […]

[3] = tested on: patients with type-1 diabetes; conditions: mealtime s.c. injections in addition to mealtime insulin, cited from earlier work
[4] = tested on: subjects with type 2 diabetes using insulin; assay: Single-dose crossover study of pramlintide injection timing relative to a standardized breakfast, type 2 diabetes using insulin (Example 2); format: in vivo, human; conditions: type 2 patients treated with lispro insulin, pramlintide 120 μg SC, -15 to +30 min relative to meal
From the text: as §1, §2
as §3, with “The timing of the short-acting insulin dose relative to the standardized breakfast is based on recommendations in the respective package inserts for the insulin (0 min for insulin lispro and −30 min for regular insulin).” left out

Question: Which postprandial glucose excursions ([1]; type 1 patients treated with lispro insulin) does the source give for CC[C@H](C)[C@H](NC(=O)[C@@H]1CCCN1C(=O)CNC(=O)[C@H](Cc1ccccc1)NC(=O)[C@H](CC(N)=O)NC(=O)[C@H](CC(N)=O)NC(=O)[C@H](CO)NC(=O)[C@H](CO)NC(=O)[C@H](Cc1c[nH]cn1)NC(=O)[C@@H](NC(=O)[C@H](CC(C)C)NC(=O)[C@H](Cc1ccccc1)NC(=O)[C@H](CC(N)=O)NC(=O)[C@H](C)NC(=O)[C@H](CC(C)C)NC(=O)[C@H](CCCNC(=N)N)NC(=O)[C@H](CCC(N)=O)NC(=O)[C@@H](NC(=O)[C@H](C)NC(=O)[C@@H]1CSSC[C@H](NC(=O)[C@@H](N)CCCCN)C(=O)N[C@@H](CC(N)=O)C(=O)N[C@@H]([C@@H](C)O)C(=O)N[C@@H](C)C(=O)N[C@@H]([C@@H](C)O)C(=O)N1)[C@@H](C)O)C(C)C)C(=O)N[C@@H](CC(C)C)C(=O)N1CCC[C@H]1C(=O)N1CCC[C@H]1C(=O)N[C@H](C(=O)N[C@@H](CC(N)=O)C(=O)N[C@H](C(=O)NCC(=O)N[C@@H](CO)C(=O)N[C@@H](CC(N)=O)C(=O)N[C@H](C(=O)N[C@@H](Cc1ccc(O)cc1)C(N)=O)[C@@H](C)O)C(C)C)[C@@H](C)O [pramlintide, ^25, 28, 29Pro-h-amylin] here?
Answer: markedly improves

Question: And the postprandial triglyceride concentrations ([1]; type 1 patients treated with lispro insulin, FIG. 2)?
Answer: markedly improves

Question: What about the postprandial glucose excursions ([1]; type 1 patients treated with regular insulin) of the same molecule?
Answer: markedly improves

Question: What about the postprandial triglyceride concentrations ([1]; type 1 patients treated with regular insulin, FIG. 3) of the same molecule?
Answer: markedly improves

Question: And the “post-prandial triglyceride excursions, mean incremental AUC” value ([2]; end of 4-week pramlintide treatment period, s.c. 15 min prior to meal, plus CSII, baseline period 65.7±87.6, p<0.05)?
Answer: 16.7 ± 56.8 mg·min/dL

Question: What about the “post-prandial glucose response to a mixed meal” value ([2]; pramlintide added to insulin, type-1 diabetic patients) of the same molecule?
Answer: reduces

Question: What about the “post-prandial triglyceride excursions, mean incremental AUC” value ([2]; week 6, 2 weeks after return to pre-treatment therapy (CSII only), off-therapy) of the same molecule?
Answer: 56.2 ± 87.3 mg·min/dL

Question: What about the “rate of gastric emptying” value ([3]; Kong et al. 1998) of the same molecule?
Answer: slows

Question: And the mealtime glucagon secretion ([3]; Nyholm et al. 1999, Fineman et al. 2002)?
Answer: suppresses

Question: What about the post-prandial glucose excursions ([3]; Nyholm et al. 1999, Thompson et al. 1997) of the same molecule?
Answer: improves

Question: What about the postprandial glucose excursions [4] of the same molecule?
Answer: markedly improves

Question: What about the postprandial triglyceride concentrations ([4]; FIG. 4) of the same molecule?
Answer: markedly improves
